# Data published in patent publication US5859016A, “Memory enhancing and anti-dementia agent containing dehydroevodiamine HC1 as active ingredient” (priority 1995, dated 1999).
# Counter-ions that a name gives are not always drawn.
# What was measured:
# AChE = target: T1, AChE (Mus musculus, UniProt P21836); assay: Determination of AChE inhibitory activity (Ellman reagent, acetylthiocholine iodide); assay type: biochemical, mice
# T1 construct: The resulting supernatant was used as an AChE source; from tissue; host or cells: mouse cerebral cortex (detergent-extracted supernatant)
# Experimental: In order to determine AChE inhibitory activity on each of the 20 subfractions obtained from EXAMPLE 1, 10 volumes of phosphate buffer solution (12.5 mM phosphate buffer solution at pH 7.0, including 400 mM NaCl) was added to the cerebral cortex of mice, homogenized in a Potter-Elvehjem homogenizer and centrifuged at 1,000 g for 10 min to obtain the supernatant. After adding homogenized buffer containing 0.5% triton X-100 to the supernatant, the mixtures were stirred for 30 min and centrifuged again at 10,000 for 10 min. The resulting supernatant was used as an AChE source. All extract steps were carried out at 4° C.
# The freeze-dried 20 subfraction extracts of EXAMPLE 1 were initially dissolved in small amounts of distilled water and DMSO. The solution was diluted at a concentration of 200 μg/ml in phosphate buffer (100 mM sodium phosphate, pH 8.0; hereinafter called "buffer solution I"). 1.5 ml of each extract was mixed with 1.5 ml of buffer solution I, 20 μl of 75 mM acetylthiocholine iodide solution and 100 μl of buffered Ellmans reagent [10 mM DTNB (5,5-dithiobis-(2-nitrobenzoic acid)) and 17.85 mM NaHCO3 ] and incubated at 25° C. for 10 min. Absorbance was read at 410 nm immediately after adding an enzyme to the above reaction mixtures. Reading was repeated for 5 min at 30 sec intervals in order to determine AChE inhibitory activity on each subfraction. A blank control reaction was measured by substituting saline for the enzyme.
# AChE activity was calculated with the absorption coefficient […]. The inhibition efficacy was expressed as a percentage of enzyme activity inhibited compared with the control value (100%).
# All experiments were repeated five times, and the results were analyzed by a Wilcoxon-rank sum test and Median 2-sample test.
# [1] = tested on: scopolamine induced amnesia; assay: Passive avoidance test, scopolamine induced amnesia; assay type: in vivo; details: rats
# Experimental: Male Sprague-Dawley rates weighing 200~250 g (12~16 weeks) which had been maintained on a 12 h/12 h light-dark cycle were used for a passive avoidance test. Food and water were available ad libitum. An automated system with a shuttle box (Model PACS-30, Columbus Instruments International Company) was used to evaluate the effects of the extracts on learning and memory essentially as described (11). The shuttle box was divided into two chambers of equal size (19"L×9"W×10.875"H). These compartments were separated by a guillotine door (3" L×2.625" W). A light chamber is equipped with an illuminator. Rats can go to the dark chamber through a guillotine door. […]
# At 24 hours after the training trial, scopolamine (1 mg/kg) or the same volume of saline was intraperitoneally injected to the rats. […] At 24 hours after the acquisition trial, the rat was again placed in the light compartment and latency to enter the dark compartment was measured for 180 sec (retention trial).
# To investigate the effects of repeated administration of DHED, a repeated administration of DHED was intraperitoneally given to the rats at a dose of 6.25 mg/kg. Except for the fact that DHED (6.25 mg/kg) was given to the rats once a day for 5 days before the treatment with scopolamine, the latency time was measured in the same manner as in the single administration.
# [2] = Single toxicity study, lethality by a single oral administration; assay type: in vivo, rats; details: rat, in vivo; after a single administration (oral)
# Experimental: (§1) A single toxicity study of the anti-dementia agent according to this invention was measured using rats. […] The lethality results by a single oral administration of DHED are as follows: […]
# rats = assay: as above; assay type: in vivo; details: single oral, 14 days
# Experimental: as §1
# T1 sequence (P21836 32-614): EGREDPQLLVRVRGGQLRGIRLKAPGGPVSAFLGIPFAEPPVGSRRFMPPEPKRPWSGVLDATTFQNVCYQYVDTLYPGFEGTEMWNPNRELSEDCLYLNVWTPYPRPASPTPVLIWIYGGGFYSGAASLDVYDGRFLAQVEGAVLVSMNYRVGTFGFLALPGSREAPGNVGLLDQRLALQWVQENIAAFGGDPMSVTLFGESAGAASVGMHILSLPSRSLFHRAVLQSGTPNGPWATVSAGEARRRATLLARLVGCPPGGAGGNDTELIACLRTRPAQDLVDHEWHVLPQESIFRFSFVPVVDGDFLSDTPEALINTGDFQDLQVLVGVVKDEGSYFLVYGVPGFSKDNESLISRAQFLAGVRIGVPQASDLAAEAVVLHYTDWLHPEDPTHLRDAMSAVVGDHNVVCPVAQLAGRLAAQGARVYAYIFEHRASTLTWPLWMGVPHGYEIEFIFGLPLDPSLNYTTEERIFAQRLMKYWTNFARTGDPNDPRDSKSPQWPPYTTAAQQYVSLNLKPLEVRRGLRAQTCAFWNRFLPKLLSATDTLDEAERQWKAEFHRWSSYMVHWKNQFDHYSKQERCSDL
structure (smiles),measurement,setting,value
"C[n+]1c2n(c(=O)c3ccccc31)CCc1c-2[nH]c2ccccc12 [DHED, dehydroevodiamine-HCl]",IC50,"AChE; AChE source from cerebral cortex of mice, FIG. 3, read-out: concentration required for 50% enzyme inhibition (IC50) of AChE",37.8 µM
same,"inhibitory effect on AChE, dose dependence",AChE; FIG. 3,strong inhibitory effect on AChE in a dose-dependent manner
same,manner of AChE inhibition (Lineweaver-Burke plots),"AChE; substrate 23 to 230 μM, DHED 40 μM, FIG. 4",non-competitive
same,"memory enhancement (latency in retention trial), repeated administration","[1]; 6.25 mg/kg intraperitoneally once a day for 5 days before scopolamine 1 mg/kg, FIG. 6",may improve memory enhancement
same,"memory enhancement (latency in retention trial), single administration","[1]; 6.25 mg/kg intraperitoneally, single, scopolamine 1 mg/kg, FIG. 5",significant memory enhancement
same,LD50,[2],2000 mg/kg
same,Mortality,"rats; female, 1,000 mg/kg",1/5
same,Mortality,"rats; female, 1,500 mg/kg",2/5
same,Mortality,"rats; female, 2,000 mg/kg",0/5
same,Mortality,"rats; female, 3,000 mg/kg",5/5
same,Mortality,"rats; female, 4,000 mg/kg",5/5
same,Mortality,"rats; male, 1,000 mg/kg",0/5
same,Mortality,"rats; male, 1,500 mg/kg",0/5
same,Mortality,"rats; male, 2,000 mg/kg",5/5
same,Mortality,"rats; male, 3,000 mg/kg",4/5
same,Mortality,"rats; male, 4,000 mg/kg",5/5
